In the supplement of paper PMC10307832:

The cell lines below were run with CN1CCN(CC1)C2=CC(=C(C=C2)NC3=NC=C4C(=N3)N(C5=CC=CC=C5C(=O)N4C)C)OC [XMD8-85] + Nc1ncn([C@H]2C[C@H](O)[C@@H](CO)O2)c(=O)n1 [Decitabine] (partner 2 µM) (assay: relative viability (nuclei count vs DMSO), 5 days (fraction); higher = more cells survive). Conditions: first compound 0.8 µM.
In short: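 Relative viability is defined as nuclei in treated wells over nuclei in vehicle wells. Duplicate plates were run and medians reported. Lung cancer cell lines in 1536-well plates were dosed by pin tool one day after seeding, with one drug or with a fixed anchor-drug dose plus five library-drug doses (not always all listed) in √10 steps, and nuclei were counted after 5 days.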

Question: Which relative viability does the source give for H3255 here?
Answer: The relative viability was 0.977.

Question: With HARA as the cell line, how does the relative viability read?
Answer: Its relative viability is 0.407.

Question: HCC-15 was tested. Which relative viability did it give?
Answer: Its relative viability is 0.782.

Question: How did the relative viability turn out when HCC-44 was run?
Answer: The relative viability was 0.922.

Question: For HCC-78, which relative viability is on record?
Answer: Its relative viability is 0.736.

Question: Which relative viability does the source give for HCC-366 here?
Answer: Its relative viability is 0.375.

Question: For HCC-827, which relative viability is on record?
Answer: Its relative viability is 0.316.

Question: How did the relative viability turn out when HOP-62 was run?
Answer: Its relative viability is 0.186.

Question: For LC-2-ad, which relative viability is on record?
Answer: The relative viability was 0.811.

Question: With LCLC-97TM1 as the cell line, how does the relative viability read?
Answer: Its relative viability is 0.204.

Question: For LCLC-103H, which relative viability is on record?
Answer: The relative viability was 0.713.

Question: How did the relative viability turn out when LK-2 was run?
Answer: Its relative viability is 0.268.

Question: How did the relative viability turn out when NCI-H358 was run?
Answer: The relative viability was 0.229.

Question: Which relative viability does the source give for NCI-H522 here?
Answer: Its relative viability is 0.615.

Question: NCI-H1395 was tested. Which relative viability did it give?
Answer: The relative viability was 0.722.

Question: Which relative viability does the source give for NCI-H1648 here?
Answer: Its relative viability is 0.635.

Question: NCI-H1793 was tested. Which relative viability did it give?
Answer: The relative viability was 0.482.

Question: Which relative viability does the source give for NCI-H1944 here?
Answer: Its relative viability is 0.462.

Question: Which relative viability does the source give for NCI-H2170 here?
Answer: The relative viability was 0.498.

Question: NCI-H2342 was tested. Which relative viability did it give?
Answer: Its relative viability is 0.677.

Question: With SK-MES-1 as the cell line, how does the relative viability read?
Answer: The relative viability was 0.39.

Question: For SW 900, which relative viability is on record?
Answer: The relative viability was 0.406.

Same assay, conditions: first compound 2.53 µM

Question: For 201T, which relative viability is on record?
Answer: The relative viability was 0.82.

Question: A549 was tested. Which relative viability did it give?
Answer: Its relative viability is 0.369.

Question: With A-427 as the cell line, how does the relative viability read?
Answer: Its relative viability is 0.573.

Question: With ABC-1 as the cell line, how does the relative viability read?
Answer: The relative viability was 1.11.

Question: How did the relative viability turn out when BEN was run?
Answer: Its relative viability is 0.66.

Question: Which relative viability does the source give for COR-L23 here?
Answer: The relative viability was 0.458.

Question: With COR-L 105 as the cell line, how does the relative viability read?
Answer: Its relative viability is 0.537.

Question: For ChaGo-K-1, which relative viability is on record?
Answer: Its relative viability is 0.525.

Question: How did the relative viability turn out when EKVX was run?
Answer: Its relative viability is 0.61.

Question: For EMC-BAC-2, which relative viability is on record?
Answer: The relative viability was 1.05.

Question: With EPLC-272H as the cell line, how does the relative viability read?
Answer: Its relative viability is 0.294.

Question: Which relative viability does the source give for H3255 here?
Answer: Its relative viability is 0.316.

Question: With HARA as the cell line, how does the relative viability read?
Answer: Its relative viability is 0.659.

Question: How did the relative viability turn out when HCC-15 was run?
Answer: The relative viability was 0.749.

Question: Which relative viability does the source give for HCC-44 here?
Answer: The relative viability was 0.973.

Question: HCC-78 was tested. Which relative viability did it give?
Answer: The relative viability was 0.671.

Question: With HCC-366 as the cell line, how does the relative viability read?
Answer: Its relative viability is 0.511.

Question: How did the relative viability turn out when HCC-827 was run?
Answer: The relative viability was 0.374.

Question: How did the relative viability turn out when HOP-62 was run?
Answer: Its relative viability is 0.228.

Question: How did the relative viability turn out when LC-2-ad was run?
Answer: Its relative viability is 0.772.

Question: Which relative viability does the source give for LCLC-97TM1 here?
Answer: The relative viability was 0.284.

Question: For LCLC-103H, which relative viability is on record?
Answer: The relative viability was 0.688.

Question: With LK-2 as the cell line, how does the relative viability read?
Answer: The relative viability was 0.246.

Question: For NCI-H358, which relative viability is on record?
Answer: The relative viability was 0.234.

Question: With NCI-H522 as the cell line, how does the relative viability read?
Answer: The relative viability was 0.782.

Question: How did the relative viability turn out when NCI-H1395 was run?
Answer: The relative viability was 0.701.

Question: Which relative viability does the source give for NCI-H1648 here?
Answer: Its relative viability is 0.638.

Question: With NCI-H1793 as the cell line, how does the relative viability read?
Answer: Its relative viability is 0.575.

Question: Which relative viability does the source give for NCI-H1944 here?
Answer: The relative viability was 0.456.

Question: Which relative viability does the source give for NCI-H2170 here?
Answer: Its relative viability is 0.497.

Question: With NCI-H2342 as the cell line, how does the relative viability read?
Answer: The relative viability was 0.777.

Question: With SK-MES-1 as the cell line, how does the relative viability read?
Answer: Its relative viability is 0.39.

Question: Which relative viability does the source give for SW 900 here?
Answer: Its relative viability is 0.458.

Same assay, conditions: first compound 8 µM

Question: 201T was tested. Which relative viability did it give?
Answer: Its relative viability is 0.689.

Question: With A549 as the cell line, how does the relative viability read?
Answer: The relative viability was 0.384.

Question: How did the relative viability turn out when A-427 was run?
Answer: The relative viability was 0.539.

Question: For ABC-1, which relative viability is on record?
Answer: Its relative viability is 0.745.

Question: With BEN as the cell line, how does the relative viability read?
Answer: The relative viability was 0.483.

Question: COR-L23 was tested. Which relative viability did it give?
Answer: Its relative viability is 0.409.

Question: How did the relative viability turn out when COR-L 105 was run?
Answer: Its relative viability is 0.466.

Question: For ChaGo-K-1, which relative viability is on record?
Answer: The relative viability was 0.45.

Question: How did the relative viability turn out when EKVX was run?
Answer: Its relative viability is 0.328.

Question: For EMC-BAC-2, which relative viability is on record?
Answer: The relative viability was 0.887.

Question: EPLC-272H was tested. Which relative viability did it give?
Answer: Its relative viability is 0.305.

Question: Which relative viability does the source give for H3255 here?
Answer: Its relative viability is 0.358.

Question: With HARA as the cell line, how does the relative viability read?
Answer: The relative viability was 0.416.

Question: How did the relative viability turn out when HCC-15 was run?
Answer: The relative viability was 0.517.

Question: For HCC-44, which relative viability is on record?
Answer: The relative viability was 0.887.

Question: How did the relative viability turn out when HCC-78 was run?
Answer: Its relative viability is 0.675.

Question: HCC-366 was tested. Which relative viability did it give?
Answer: Its relative viability is 0.393.

Question: With HCC-827 as the cell line, how does the relative viability read?
Answer: The relative viability was 0.369.

Question: For HOP-62, which relative viability is on record?
Answer: The relative viability was 0.236.

Question: For LC-2-ad, which relative viability is on record?
Answer: The relative viability was 0.514.

Question: With LCLC-97TM1 as the cell line, how does the relative viability read?
Answer: Its relative viability is 0.195.

Question: Which relative viability does the source give for LCLC-103H here?
Answer: The relative viability was 0.605.

Question: With LK-2 as the cell line, how does the relative viability read?
Answer: Its relative viability is 0.232.

Question: How did the relative viability turn out when NCI-H358 was run?
Answer: Its relative viability is 0.198.
